According to patent US20200031873A1, “REPURPOSING CELL PENETRATING PEPTIDES AND THEIR NOVEL DERIVATIVES AND IOPROMIDE AND IODO-ARYL CARBONATES FOR TREATMENT OF SENESCENCE-RELATED DISEASES AND DISORDERS” (Eternans Limited, priority 2018, published 2020):
Entries after “also recorded” stand apart in the source; their conditions may differ. Where a SMILES comes first, the peptide text is derived from it.

Tests used:
[1] = system: senescent and non-senescent WI-38 fibroblasts; assay type: cell-based, human; settings: total doses 0 to 100 μM on 3 consecutive days, read after 7 days, listed as SEQ ID NO: 11
Procedure: WI-38 cells (ATCC # CCL-75, a diploid primary human fibroblast adherent cell line derived from fetal lung tissue) were treated with a chemotherapy agent, 100 nM Doxorubicin twice every other day to induce senescence. […] Later these cells were used for experiments comparing them to their non-Doxorubicin (non-senescent) treated counterparts. Senescent and non-senescent WI-38 fibroblasts were plated for XTT viability assays. 7000 senescent (obtained as described above) and 2000 non-senescent WI-38 fibroblasts were plated in 96-well plates incubated. The cells were treated with mock (PBS) or the Senolytic Peptide (SEQ ID NO: 11) at total doses ranging from 0 to 100 μM. The mock and peptide treatments were carried out for 3 consecutive days (24, 48 and 72 hours) after plating. After treatment period, the cells were incubated for 7 days until XTT-based viability was analyzed according to the manufacturer's instructions. […] The Senolytic Peptide (SEQ ID NO: 2) was ordered from Chinese Peptide Company with TFA removal.

[2] = system: BALB/c mice; test: Acute Sytemic Toxicity Test (ISO 10993-11); assay type: in vivo; design: hematological parameters, AST, ALT, ALP levels and gross pathology: dose or concentration left out as unconfirmed
Procedure: Senolytic Peptides were evaluated for toxicity according to Acute Sytemic Toxicity Test (ISO 10993-11). This study was performed in strict accordance with the protocol approved by the TUBITAK-MAM Animal Ethics Committee. All the mice used in this study were of a BALB/c background at 8-12 weeks of age. All mice were kept in group housing until the start of the experiment after which they were placed in separate cages (5 mice per cage). […] Control and Senolytic Peptide (SEQ ID NO: 2) injected mice were sacrificed 24 hours later for pathological examination. […] Blood samples were subsequently collected for determination and analysis of hematological and biochemical parameters. Plasma alanine aminotransferase (ALT), aspartate aminotransferase (AST), alkaline phosphatase (ALP) activities and blood urea, glucose, triglyceride levels were determined, inter alia, full hematological parameters.

Compound | viability of senescent vs non-senescent cells (XTT) [1] | toxicity to the physical appearance of the mice ([2]; intravenous single injection, 1, 10, 50 and 100 mg/kg, within 24 hours) | hematological parameters, AST, ALT, ALP levels and gross pathology ([2]; intravenous single injection, 24 hours, even at higher doses)
TRQARRNRRRRWRERQR [ID 11] | selective decrease in the viability of senescent cells but not non-senescent cells; also recorded: selectively decreased the viability of senescent cells but not non-senescent cells |  | 
N=C(N)NCCC[C@H](NC(=O)[C@H](CCCNC(=N)N)NC(=O)[C@H](CCCNC(=N)N)NC(=O)[C@H](CCC(N)=O)NC(=O)[C@H](CCCNC(=N)N)NC(=O)[C@H](CCCNC(=N)N)NC(=O)[C@H](CCCCN)NC(=O)[C@H](CCCCN)NC(=O)[C@H](CCCNC(=N)N)NC(=O)CNC(=O)[C@H](Cc1ccc(O)cc1)NC(=O)[C@H](CCCNC(=N)N)NC(=O)[C@H](CCCNC(=N)N)NC(=O)[C@H](CCCNC(=N)N)NC(=O)[C@H](CCC(N)=O)NC(=O)[C@H](CCCNC(=N)N)NC(=O)[C@H](CCCNC(=N)N)NC(=O)[C@H](CCCCN)NC(=O)[C@H](CCCCN)NC(=O)[C@H](CCCNC(=N)N)NC(=O)CNC(=O)[C@H](Cc1ccc(O)cc1)NC(=O)[C@H](CCCNC(=N)N)NC(=O)[C@H](CCCNC(=N)N)NC(=O)[C@H](CCCNC(=N)N)NC(=O)[C@H](CCC(N)=O)NC(=O)[C@H](CCCNC(=N)N)NC(=O)[C@H](CCCNC(=N)N)NC(=O)[C@H](CCCCN)NC(=O)[C@H](CCCCN)NC(=O)[C@H](CCCNC(=N)N)NC(=O)CNC(=O)[C@@H](N)Cc1ccc(O)cc1)C(=O)O [ID 2] (H-YGRKKRRQRRRYGRKKRRQRRRYGRKKRRQRRR-OH; N-terminus and C-terminus assumed) |  | No toxicity to the physical appearance of the mice was observed | no toxicity
